Laboratory results reported in PubChem BioAssay AID330 (DTP/NCI, 2004).
Several values for one entry are separate records, joined by “and”; a condition that tells them apart may be missing. Equal values may be shown once. Toxic doses and inconclusive results are not listed. Rule for the calls: active = survival T/C of 150% or more; inactive = T/C below 125% in these data.

Test system: P388 leukemia ip, CD2F1 mice, survival T/C
Experiment: NCI In Vivo Anticancer Drug Screen. Data for tumor model P388 Leukemia (intraperitoneal) in CD2F1 (CDF1) mice
Details: endpoint: median survival time, higher = longer survival
Outline: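 Mice carrying the transplanted tumor received test compound or vehicle. Survival was recorded in each group, and the value is the treated-group measurement divided by that of the vehicle-treated control group.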

[1] = dose: 50.0 mg/kg/injection, schedule: Q01DX009 (ip), vehicle: saline
[2] = dose: 100.0 mg/kg/injection, schedule: Q01DX009 (ip), vehicle: saline
[3] = dose: 200.0 mg/kg/injection, schedule: Q01DX009 (ip), vehicle: saline
[4] = dose: 100.0 mg/kg/injection, schedule: Q01DX001 (ip), vehicle: saline with Tween-80
[5] = dose: 200.0 mg/kg/injection, schedule: Q01DX001 (ip), vehicle: saline with Tween-80
[6] = dose: 400.0 mg/kg/injection, schedule: Q01DX001 (ip), vehicle: saline with Tween-80
[7] = dose: 100.0 mg/kg/injection, schedule: Q01DX001 (ip), vehicle: Klucel (hydroxypropylcellulose) (HPC)
[8] = dose: 200.0 mg/kg/injection, schedule: Q01DX001 (ip), vehicle: Klucel (hydroxypropylcellulose) (HPC)
[9] = dose: 400.0 mg/kg/injection, schedule: Q01DX001 (ip), vehicle: Klucel (hydroxypropylcellulose) (HPC)
[10] = dose: 50.0 mg/kg/injection, schedule: Q01DX005 (ip), vehicle: Klucel (hydroxypropylcellulose) (HPC)
[11] = dose: 100.0 mg/kg/injection, schedule: Q01DX005 (ip), vehicle: Klucel (hydroxypropylcellulose) (HPC)
[12] = dose: 200.0 mg/kg/injection, schedule: Q01DX005 (ip), vehicle: Klucel (hydroxypropylcellulose) (HPC)
[13] = dose: 50.0 mg/kg/injection, schedule: Q01DX005 (ip), vehicle: saline with Tween-80
[14] = dose: 60.0 mg/kg/injection, schedule: Q01DX005 (ip), vehicle: saline with Tween-80
[15] = dose: 100.0 mg/kg/injection, schedule: Q01DX009 (ip), vehicle: saline with Tween-80
[16] = dose: 200.0 mg/kg/injection, schedule: Q01DX009 (ip), vehicle: saline with Tween-80
[17] = dose: 120.0 mg/kg/injection, schedule: Q01DX005 (ip), vehicle: saline with Tween-80
[18] = dose: 240.0 mg/kg/injection, schedule: Q01DX005 (ip), vehicle: saline with Tween-80

Measured: T/C

C=CCC12CC(OC)C(O)CC1(O)OC(c1cc(OC)c(OC)c(OC)c1)C2C (centres undefined)
inactive: dose: 1.25 mg/kg/injection, schedule: Q01DX005 (ip), vehicle: acid diluted with saline 115 % of control | dose: 2.5 mg/kg/injection, schedule: Q01DX005 (ip), vehicle: acid diluted with saline 100 % of control | dose: 5.0 mg/kg/injection, schedule: Q01DX005 (ip), vehicle: acid diluted with saline 93 % of control | dose: 10.0 mg/kg/injection, schedule: Q01DX005 (ip), vehicle: acid diluted with saline 106 % of control

O=C(SCCO)SCCO
inactive: [1] 86 % of control | [2] 89 % of control | [3] 88 % of control

[Co].[N-]=C=S.[N-]=C=S.[N-]=C=S.[NH2-].[NH2-].[NH2-]
inactive: dose: 50.0 mg/kg/injection, schedule: Q01DX001 (ip), vehicle: saline with Tween-80 101 % of control | dose: 50.0 mg/kg/injection, schedule: Q01DX005 (ip), vehicle: saline 96 % of control | [4] 99 % of control and 94 % of control | dose: 100.0 mg/kg/injection, schedule: Q01DX005 (ip), vehicle: saline 113 % of control | [5] 98 % of control and 106 % of control | [6] 98 % of control

O=C(Nc1ccccc1)C1(Cl)CCCCC1
inactive: [7] 90 % of control | [8] 92 % of control | [9] 91 % of control

CCOC(=O)Nc1ccc2c3c(cccc13)-c1ccccc1-2
inactive: [10] 90 % of control | [11] 97 % of control | [12] 91 % of control

Cc1ccc2nc(N/N=C/c3ccccn3)cc(C)c2c1
inactive: [13] 103 % of control and 107 % of control and 111 % of control | dose: 100.0 mg/kg/injection, schedule: Q01DX005 (ip), vehicle: saline with Tween-80 110 % of control and 114 % of control and 115 % of control | dose: 200.0 mg/kg/injection, schedule: Q01DX005 (ip), vehicle: saline with Tween-80 110 % of control

Cc1onc(-c2c(F)cccc2Cl)c1C(=O)N[C@@H]1C(=O)N2[C@@H]1SC(C)(C)[C@@H]2C(=O)O
inactive: [1] 102 % of control | [2] 105 % of control | [3] 107 % of control

CN(CCC[NH-])CCC[NH-].[Cl][Pd][Cl]
inactive: dose: 25.0 mg/kg/injection, schedule: Q04DX002 (ip), vehicle: saline 102 % of control | dose: 50.0 mg/kg/injection, schedule: Q04DX002 (ip), vehicle: saline 102 % of control | dose: 100.0 mg/kg/injection, schedule: Q04DX002 (ip), vehicle: saline 98 % of control

c1ccc2c(c1)c1ccccc1c1n[se]nc21
inactive: dose: 15.0 mg/kg/injection, schedule: Q01DX005 (ip), vehicle: saline with Tween-80 90 % of control | dose: 30.0 mg/kg/injection, schedule: Q01DX005 (ip), vehicle: saline with Tween-80 90 % of control | [14] 98 % of control

CC(=O)Nc1nncs1
inactive: dose: 100.0 mg/kg/injection, schedule: Q04DX003 (ip), vehicle: saline sonified 109 % of control | dose: 200.0 mg/kg/injection, schedule: Q04DX003 (ip), vehicle: saline sonified 90 % of control | dose: 400.0 mg/kg/injection, schedule: Q04DX003 (ip), vehicle: saline sonified 118 % of control

CCCCN(CCCC)CCC(O)c1cc(-c2ccc(C(F)(F)F)cc2)nc(-c2ccc(C(F)(F)F)cc2)c1 (centres undefined)
inactive: dose: 50.0 mg/kg/injection, schedule: Q01DX009 (ip), vehicle: saline with Tween-80 111 % of control | [15] 106 % of control | [16] 101 % of control

CC1COCC(C)OC(C)COCC(C)OC(=O)COCC(=O)O1 (centres undefined)
inactive: dose: 100.0 mg/kg/injection, schedule: Q04DX003 (ip), vehicle: Klucel (hydroxypropylcellulose) (HPC) 104 % of control | dose: 200.0 mg/kg/injection, schedule: Q04DX003 (ip), vehicle: Klucel (hydroxypropylcellulose) (HPC) 110 % of control | dose: 400.0 mg/kg/injection, schedule: Q04DX003 (ip), vehicle: Klucel (hydroxypropylcellulose) (HPC) 103 % of control

C[C@]12CCCC[C@@H]1CC[C@@H]1[C@@H]2[C@@H](O)C[C@]2(C)[C@@H](O)CC[C@@H]12
inactive: dose: 100.0 mg/kg/injection, schedule: Q04DX003 (ip), vehicle: saline with Tween-80 91 % of control | dose: 200.0 mg/kg/injection, schedule: Q04DX003 (ip), vehicle: saline with Tween-80 100 % of control

CSc1nc(N)n2nc(C)cc2n1
inactive: [14] 100 % of control | [17] 100 % of control | [18] 95 % of control

CC(C)=CC[P+](C)(c1ccccc1)c1ccccc1
inactive: dose: 1.56 mg/kg/injection, schedule: Q04DX003 (ip), vehicle: saline 101 % of control | dose: 3.13 mg/kg/injection, schedule: Q04DX003 (ip), vehicle: saline 100 % of control | dose: 6.25 mg/kg/injection, schedule: Q04DX003 (ip), vehicle: saline 89 % of control

C=Cc1c(C)c(OC(C)=O)cc2c1-c1ccc(OC(C)=O)c(C)c1CC2
inactive: dose: 2.25 mg/kg/injection, schedule: Q01DX009 (ip), vehicle: Klucel (hydroxypropylcellulose) (HPC) 103 % of control | dose: 4.5 mg/kg/injection, schedule: Q01DX009 (ip), vehicle: Klucel (hydroxypropylcellulose) (HPC) 100 % of control | dose: 9.0 mg/kg/injection, schedule: Q01DX009 (ip), vehicle: Klucel (hydroxypropylcellulose) (HPC) 94 % of control | dose: 18.0 mg/kg/injection, schedule: Q01DX009 (ip), vehicle: Klucel (hydroxypropylcellulose) (HPC) 100 % of control

CCc1cccc(CC)c1NC(=O)C(Sc1nc(-c2cccs2)cc(C(F)(F)F)c1C#N)c1ccccc1 (centres undefined)
inactive: [10] 94 % of control | [11] 94 % of control | [12] 89 % of control

CCNC1=C(C(=O)c2ccccc2)CCC1
inactive: [1] 109 % of control | [2] 104 % of control | [3] 109 % of control

CC(C)CC(C)(c1ccc(O)cc1)c1ccc(O)cc1
inactive: [15] 105 % of control | [16] 105 % of control

C[C@]12CC[C@H](O)CC1CC[C@@H]1C2CC[C@]2(C)NC(=O)CCC12 (some centres undefined)
inactive: [4] 108 % of control | [5] 108 % of control | [6] 120 % of control

Nc1ncnc2c1CCc1ccccc1-2
inactive: dose: 100.0 mg/kg/injection, schedule: Q04DX002 (ip), vehicle: saline with Tween-80 107 % of control | dose: 200.0 mg/kg/injection, schedule: Q04DX002 (ip), vehicle: saline with Tween-80 112 % of control

CCOC(=O)c1ccc(N2C(=O)OC(C)(C)C2=O)cc1
inactive: [10] 103 % of control | [11] 97 % of control | [12] 101 % of control

Cc1ccc(S(=O)(=O)OCCC(C)OS(=O)(=O)c2ccc(C)cc2)cc1 (centres undefined)
inactive: [14] 100 % of control | [17] 100 % of control | [18] 101 % of control

CC(=O)OC1CSc2ccccc2N(C(C)=O)C1 (centres undefined)
inactive: dose: 60.0 mg/kg/injection, schedule: Q01DX005 (ip), vehicle: Klucel (hydroxypropylcellulose) (HPC) 104 % of control | dose: 120.0 mg/kg/injection, schedule: Q01DX005 (ip), vehicle: Klucel (hydroxypropylcellulose) (HPC) 99 % of control | dose: 240.0 mg/kg/injection, schedule: Q01DX005 (ip), vehicle: Klucel (hydroxypropylcellulose) (HPC) 107 % of control

CC(C)(O)c1ccccc1S(=O)c1ccccc1 (centres undefined)
inactive: [7] 101 % of control | [8] 100 % of control | [9] 92 % of control

COc1cccc(Oc2ccc(C)c[n+]2CC(C)=O)c1
inactive: dose: 25.0 mg/kg/injection, schedule: Q01DX005 (ip), vehicle: saline with Tween-80 100 % of control | [13] 105 % of control
